Source: article PMC7115507 (European Journal of Medicinal Chemistry, 2019)
“Also recorded” adds a separate entry of the source. Like-named read-outs stand apart in the source and are kept apart here.

Tests used:
HSV-1 = conditions: cited from earlier work
HSV-2 = conditions: cited from earlier work
CHIKV [1] = assay type: cell-based, Chikungunya virus
CHIKV [2] = conditions: cited from earlier work
ZIKV [3] = conditions: cited from earlier work
SARS-CoV [4] = conditions: cited from earlier work
MERS-CoV [5] = conditions: cited from earlier work
SAH hydrolase = SAH hydrolase (Homo sapiens, UniProt P23526); assay type: biochemical
Vero E6 cells = test: Cytotoxicity; conditions: highest dose tested
ZIKV [6] = assay type: cell-based, Zika virus
MERS-CoV [7] = assay type: cell-based, Middle East respiratory syndrome coronavirus
SARS-CoV [8] = assay type: cell-based, severe acute respiratory syndrome coronavirus

SAH hydrolase, sequence (P23526 whole entry): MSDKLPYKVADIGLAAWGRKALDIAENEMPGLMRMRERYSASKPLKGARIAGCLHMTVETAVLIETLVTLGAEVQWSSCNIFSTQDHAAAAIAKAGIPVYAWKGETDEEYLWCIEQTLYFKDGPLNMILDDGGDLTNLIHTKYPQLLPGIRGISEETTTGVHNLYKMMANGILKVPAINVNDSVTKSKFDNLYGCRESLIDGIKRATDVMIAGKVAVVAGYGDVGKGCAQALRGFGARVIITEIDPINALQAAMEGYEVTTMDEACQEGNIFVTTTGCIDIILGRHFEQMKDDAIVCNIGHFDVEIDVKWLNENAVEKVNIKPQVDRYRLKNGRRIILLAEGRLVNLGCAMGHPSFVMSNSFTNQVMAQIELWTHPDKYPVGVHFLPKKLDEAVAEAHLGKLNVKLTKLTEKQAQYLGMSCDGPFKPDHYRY

Nc1ncnc2c1ncn2C1CC(CCO)C(O)C1O (single isomer, unassigned; (-)) [(−)-homoaristeromycin]
activity against HSV-1 (in words) (HSV-1): inactive | activity against HSV-2 (in words) (HSV-2): inactive

Nc1ncnc2c1ncn2[C@H]1[C@H](O)[C@H](O)[C@@H](CO)[C@H]1F [Compound 2a, 6′-β-fluoro-aristeromycin]
antiviral activity against CHIKV (in words) (CHIKV [1]): inactive

Nc1ncnc2c1ncn2[C@H]1[C@H](O)[C@H](O)[C@@H](CO)C1(F)F [Compound 2b, 6,6′-difluoro-aristeromycin]
antiviral activity against CHIKV (in words) (CHIKV [2]): broad-spectrum antiviral activity | antiviral activity against CHIKV (in words) (CHIKV [2]; listed as 2): potent antiviral activities | antiviral activity against ZIKV (in words) (ZIKV [3]): broad-spectrum antiviral activity | antiviral activity against ZIKV (in words) (ZIKV [3]; listed as 2): potent antiviral activities | antiviral activity against SARS-CoV (in words) (SARS-CoV [4]): broad-spectrum antiviral activity; also recorded: potent antiviral activities | antiviral activity against MERS-CoV (in words) (MERS-CoV [5]): broad-spectrum antiviral activity; also recorded: potent antiviral activities

Nc1ncnc2c1ncn2[C@H]1[C@H](O)[C@H](O)[C@@H](CCO)[C@H]1F [Compound 3a, (1R,2S,3S,4R,5R)-3-(6-Amino-9H-purin-9-yl)-4-fluoro-5-(2-hydroxyethyl)cyclopentane-1,2-diol]
potency towards SAH hydrolase relative to 3d (SAH hydrolase): 5.6 times | selectivity index (SI) (CHIKV [1]): more than 2083 | concentration up to which no noticeable cytotoxicity was seen (Vero E6 cells): > 250 µM

OCC[C@@H]1[C@@H](O)[C@@H](O)[C@H](n2cnc3c(O)ncnc32)[C@@H]1F [Compound 3c, 9-((1S,2R,3R,4R,5S)-2-fluoro-4,5-dihydroxy-3-(2-hydroxyethyl)cyclopentyl)-1,9-dihydro-6H-purin-6-one]
inhibition of SAH hydrolase at the highest dose tested (in words) (SAH hydrolase): no inhibitory activity was observed

Nc1ncnc2c1ncn2[C@H]1[C@H](O)[C@H](O)[C@@H](CCO)C1(F)F [Compound 3d]
antiviral activity against ZIKV (in words) (ZIKV [6]): did not exhibit antiviral activity | antiviral activity against MERS-CoV (in words) (MERS-CoV [7]): did not exhibit antiviral activity | antiviral activity against CHIKV (in words) (CHIKV [1]): did not exhibit antiviral activity | antiviral activity against SARS-CoV (in words) (SARS-CoV [8]): did not exhibit antiviral activity
